# Values quoted from earlier work in patent US20210213093A1, “COMPOSITIONS AND METHODS FOR ACTIVATING CELLULAR SIGNALING PATHWAYS” (LifeVantage Corporation, priority 2020, published 2021).
# Conditions: background statement, no test described
compound,measurement,value
"O=C(O)CCCC[C@@H]1CCSS1 (racemic) [Lipoic acid, lipoic acid]",antioxidant power relative to vitamin E and vitamin C combined,400 times
